# Assay results published in patent US20120196858A1, “METHOD OF PROMOTING APOPTOSIS AND INHIBITING METASTASIS” (Poniard Pharmaceuticals ,Inc., priority 2009, published 2012).
# Test system: 4T1 tumors
# Test: Subcutaneous mCherry 4T1 tumor growth in BALB/c mice
# Type: in vivo
# Method: Detection of apoptosis in tumors: Fresh tumors were snap-frozen in Optimal Cutting Temperature (OCT) compound (Tissue Tek), thin sectioned ([…]) using a cryomicrotome (Leica 3050S) and mounted onto glass slides. Sections were fixed with 3% paraformaldehyde, permeabilized in PBS containing 0.1% Triton for 3 min, and blocked with 8% goat serum in PBS for 60 min at RT. For activated caspase-3 detection, sections were incubated with cleaved caspase-3 antibody (1:200 diluted in 2% goat serum in PBS) for 18 h at 4° C., washed with PBS, and incubated with fluorescein isothiocyanate conjugated anti-rabbit and TOPRO-3 (blue) for DNA detection. Sections were imaged on a Nikon Eclipse C1 confocal microscope with a 1.4 NA 60× oil objective, with a 30 μm pinhole setting, and analyzed using EZ-C1 3.50 software (Nikon). Tumor apoptosis was also measured by terminal deoxynucleotidyl transferase dUTP nick end labeling (TUNEL) staining using the tetramethylrhodamine (TMR) kit as per the manufacturer's instructions (Roche). Bright field and fluorescent images of whole tumor sections were obtained using Zeiss M2-Bio Stereo microscope equipped with INFINITY1-3C: digital color camera and a 4× objective.
# Mouse tumor studies: Six to eight week old female C57B16 and BALB/c mice were obtained from Harlan Laboratories (Indianapolis, Ind.) and housed in pathogen-free conditions, according to the guidelines of the Association for the Assessment and Accreditation for Laboratory Animal Care, International. All in vivo studies were carried out under an approved institutional experimental animal care and use protocol. Growing tumor cells were harvested by limited trypsinization, washed in PBS, and counted using a ViCell XR (Beckman) prior to injection. Cell viability as measured by trypan blue exclusion was >95%. For subcutaneous tumor growth, 1×10^6 mCherry-labeled 4T1 cells in 100 μl PBS were injected into the hindflank of Balb/C mice. […] Control animals received PEG400:PBS injections and at 13 days, tumors were imaged in situ using an Olympus OV100 Intravital Fluorescence Molecular Imaging System, tumors were excised and weighed, half was frozen in OCT, and half was solubilized in protein lysis buffer for FAK phosphorylation analyses. For ID8 ovarian carcinoma tumor growth, 0.8 mL of 1×10^7 ID8 cells in PBS was intraperitoneal injected into C57B16 mice. […] Administration continued ad libitum for 30 days after which mice were euthanized, ascites fluid collected, cells obtained by centrifugation (2000 rpm for 5 min), cell volume measured by pipet, and then solubilized in protein lysis buffer for immunoblotting analyses.
smiles,measurement,setting,value
CNC(=O)c1ccccc1Nc1cc(Nc2ccc(N3CCOCC3)cc2OC)ncc1C(F)(F)F [PND-1186],final tumor weight,"30 mg/kg b.i.d., 5 days",slightly reduced final tumor weight but was not significantly different
same,cleaved caspase-3 staining in tumors,100 mg/kg,elevated cleaved caspase-3 staining
same,reduction of final tumor weight,"100 mg/kg b.i.d., 5 days",2 fold
same,tumor TUNEL staining,"30 and 100 mg/kg b.i.d., vs vehicle",significantly increased tumor TUNEL staining
